Data on one compound can be found in US6911454B1, “Method for potentiating primary drugs in treating multidrug resistant disease” (priority 1989, dated 2005).

Each structure is given as a SMILES string. Read-outs that look alike come from different tables or passages of the source.

By IC50 is commonly meant the concentration that inhibits the measured activity by half.

One assay concerns DX20 tumor. As to the kind of experiment: tumor measurements in nude mice bearing the DX20 tumor. The class given is in vivo. The protocol:
(See FIG. 6). Tumor size was calculated using the formula (4 Pi/3) X*Y*2Z.
The study was done with 3-4 week old male balb-C nude mice. The animals were injected with DX20 1×10^7 cells.

Another assay deals with A2780AD10. As to conditions: FIG. 4; A2780AD10 versus parent A2780; addition of d-tetrandrine.
Assay [1] concerns CQ-resistant (W-2) strain of P. falciparum. Put plainly: 3H-adenosine incorporation, chloroquine-resistant P. falciparum. The class given is cell-based. The protocol:
Chloroquine and qinghaosu are commonly used antimalarial drugs.
The dose (IC50) of each drug or each drug combination required to effect a 50% inhibition in the malarial activity of each strain was determined by establishing a dose response curve for each.
FCMSU1/Sudan strain and cloned Indochina (W-2) strain of P. falciparum were used. […] The two strains of the parasite were cultured according to the candle jar method of Trager and Jensen, Science, Vol. 193, pages 673-675 (1976). In a given experiment, four-day-old Petri dish cultures (approximately 10% parasitemia) were diluted with medium containing an amount of noninfected type A human erythrocytes to obtain a culture with a final hematocrit of 1.5% and parasitemia of 0.5-1.0%. The resulting culture was ready for addition to microtitration plates with ninety-six flat-bottom wells.
The testing procedure used was similar to that described by Desjardins et al. in “Antimicrobial Agents and Chemotherapy,” Vol. 16, pages 710-718 (1979). […] 25 microliters radioactive (0.5 microCi) [2,8-^3H] adenosine. The microtitration plates were incubated in a candle jar for an additional 18 hours, at 37° C.
As the malaria parasite grows ^3H-adenosine is metabolized and incorporates into polymeric RNA and DNA. The labeled polymers are trapped on glass fiber filters and unincorporated material is washed away. In the absence of drug there is 100% incorporation of the labeled material. When drugs interfere (directly or indirectly), an inhibitory dose of 50% (IC50) can be calculated. The experiments were repeated three times except where noted. Statistical analysis was done using Student's T-test for significance. Van Kyke et al. “Exp. Parasitol,” Vol. 64, pages 418-423 (1987).
The test procedure was basically the same as outlined above.

Another assay concerns DX20 cancer cells. Put plainly: modified MTT assay, drug sensitivity of DX20 cells. The class given is cell-based, human. From the text: The MES-SA/DX20 cell line was established according to the development methods of Sikic et al., Resistance to Antineoplastic Drugs, Chap. 3, CRC Press, Ed. David Kessel, pp. 37-47 (1989). In vitro drug sensitivity testing consisted of two assay models, the modified MTT assay (Mossman, J. Immunolog. Methods, Vol. 65, pp. 55-63, 1983) and the colonogenic assay. In addition to this, the combinations were investigated in vivo in nude mice bearing the DX20 cell line. The MTT assay was chosen because of its practical advantages in large-scale screening. The assay involved cellular conversion of tetrazolium salt to a colored formazan serving as a measurement of cell viability.
In a given experiment, culture media, 50 microliters, containing 8,000-25,000 cells, depending on the proliferation rate of the cell line, was pipetted into each well of several 96-well microtiter plates. The cells were allowed to attach overnight. […] The cytotoxic drug, also at a concentration below that previously established as an IC50, was then added at decreasing concentrations by 25% to several half plate sections. The cells were allowed to grown for 72 hours. 100 microliters of media was then removed and 25 microliters of 5 mg/ml MTT (Sigma, St. Louis, Mo.) in phosphate buffered saline was added to each well. The plates were kept in an incubator at 37° C. and 5% CO2. After 2-3 hours of incubation, the extraction buffer containing 20% w/v SDS and 50% DMF was added and the plates again incubated overnight. The plates were read at a test wavelength of 570 nm on a multiwell spectrophotometer (Model MR 700, Dynatech Laboratories, Alexandria, Va.). Each drug combination was tested in triplicate. Percent survival was defined as percent of optical density (OD) of the drug-treated wells to that of the control detected by the spectrophotometer.
The in vitro drug sensitivity testing of ethyl fangchinoline consisted of two assay models, the modified MTT (Mossman 1983) and a colony formation assay in which a direct measure was taken by quantitation of colony formation. The MTT assay was chosen because of its practical advantages in large scale screening. The assay involves cellular conversion of tetrozolium salt to a colored formazan serving as a measurement of cell viability.
Two human cell lines were chosen as the primary targets of study in reversing multiple-drug resistance. The MES-SA, a sarcoma, and its resistant subline, DX-20, were kindly donated by Dr. B. Sikic (U of Stanford, Stanford, Calif.). The A2780, an ovarian cancer, and its resistant subline, A2780-ad10, were provided by Roswell Park Memorial Inst. (Buffalo, N.Y.).
Culture media, 50 ul containing 8,000 to 25,000 cells depending on the proliferation rate of the line, was pipetted into each of 96 wells in a flat bottom tissue plate. The cells were incubated overnight to allow adherence. One hundred ul of ethyl fangchinoline, at a concentration below that previously established as an independent IC50, was added to each experimental well. […] The plates were then incubated for 72 hours before MTT was added and the analysis of O.D. values interpreted by a multi-plate scanner (MR700, Dynatech).
Background: Tetrazolium dyes change colour on reduction, which living cells bring about.

Setting [2] is: Day 7 Prior to Treatment (baseline).
The mark [3] stands for this setting: Day 24 After Treatment, d-tetrandrine days 6, 8, 10, doxorubicin 5.5 mg/kg day 12.

Regarding `COc1ccc2cc1Oc1ccc(cc1)C[C@H]1c3cc(c(OC)cc3CCN1C)Oc1c(OC)c(OC)cc3c1[C@H](C2)N(C)CC3` [TT, tetrandrine], the results for the “Tumor Measurements Depth” value in the assay on DX20 tumor (setting [2]) and in the assay on DX20 tumor (setting [3]) were 1.13 and 24.66, respectively. Further, in the assay with DX20 tumor (setting [2]), the “Tumor Measurements Length” value was found to be 4.13. Also, the “Tumor Measurements Width” value in the assay with DX20 tumor (setting [2]) came out at 3.75; in the assay on DX20 tumor (setting [3]), 26.16. The doxorubicin resistance reversal result was “either partially or completely reversed” with A2780AD10 and “either partially or completely reversed” in the assay on DX20 cancer cells (FIG. 1, DX20 versus parent MES-SA, addition of d-tetrandrine). The IC50 in assay [1] (R STRAIN, TT/CQ 10:1, mean ± S.D, read-out: IC50 DRUG COMBINATION TT(2.0 uM) CQ(0.2 uM)) stood at 79.5 ± 16.1 nM; in assay [1] (R STRAIN, TT/QHS 10:1, mean ± S.D, read-out: IC50 DRUG COMBINATION TT(2.0 uM) QHS(0.2 uM)), 71.8 ± 13.8 nM; in assay [1] (Table III, R STRAIN, mean ± S.D, read-out: IC50 SINGLE DRUG), 198 ± 24.7 nM; in assay [1] (Table IV, R STRAIN, mean ± S.D, read-out: IC50 SINGLE DRUG) it was 206 ± 49.8 nM; in assay [1] (Table VII, chloroquine-resistant strain, drug alone, read-out: IC50 R), 120 nM; in assay [1] (read-out: IC50 DRUG COMBINATION TT(1.0 uM) CQ(0.3 uM), R STRAIN, TT/CQ 10:3, mean ± S.D), 79.5 ± 13.7 nM. Further, the IC50 was 59.6 ± 13.7 nM in assay [1] (read-out: IC50 DRUG COMBINATION TT(1.0 uM) QHS(0.3 uM), R STRAIN, TT/QHS 10:3, mean ± S.D); 125 ± 9.6 nM in assay [1] (read-out: IC50 DRUG COMBINATION TT(3.0 uM) CQ(0.1 uM), R STRAIN, TT/CQ 30:1, mean ± S.D); 137 ± 41.6 nM in assay [1] (read-out: IC50 DRUG COMBINATION TT(3.0 uM) QHS(0.1 uM), R STRAIN, TT/QHS 30:1, mean ± S.D); 4.3 µM with DX20 cancer cells (DX20 cells, single agent, read-out: IC50 alone). In addition, in the assay on DX20 cancer cells (FIG. 2, DX20 versus parent MES-SA, addition of d-tetrandrine), the vincristine-resistance reversal entry is on record as “either partially or completely reversed”. Also, in the assay on DX20 cancer cells (FIG. 3, DX20 versus parent MES-SA, addition of d-tetrandrine), the vinblastine resistance reversal entry is recorded as “either partially or completely reversed”. Besides, the “sensitivity of DX20 to doxorubicin versus parent (MES) cell line” value with DX20 cancer cells (d-tetrandrine 1.0×10^−6 M combined with doxorubicin 1.2×10^−8 M) is “becomes more sensitive to doxorubicin than the parent (MES) cell line”.
